According to the NIST ThermoML archive (doi:10.1016/j.jct.2017.01.016):

Tests used:
[1] = xn = mol fraction of the nth substance listed; settings: 101 kPa, Liquid; for viscosity: Capillary tube (Ostwald / Ubbelohde) method; for speed of sound: Frequency=3 MHz, Linear variable-path acoustic interferometer
[2] = 101 kPa, Liquid; for viscosity: Capillary tube (Ostwald / Ubbelohde) method; for speed of sound: Frequency=3 MHz, Linear variable-path acoustic interferometer

C1COCCO1 [1,4-dioxane] + Cc1ccc(C)cc1
[1], x1 = 1
Settings | speed of sound [m/s] | viscosity [mPa·s]
293.15 K | 1367.2 | 1.306
298.15 K | 1344.7 | 1.195
303.15 K | 1323.1 | 1.096
308.15 K | 1301.2 | 1.014
313.15 K | 1279.7 | 0.945
318.15 K | 1258.6 | 0.884

C1COCCO1 [1,4-dioxane] + Cc1cccc(C)c1
[1], x1 = 1
Settings | speed of sound [m/s] | viscosity [mPa·s]
293.15 K | 1367.2 | 1.306
298.15 K | 1344.7 | 1.195
303.15 K | 1323.1 | 1.096
308.15 K | 1301.2 | 1.014
313.15 K | 1279.7 | 0.945
318.15 K | 1258.6 | 0.884

C1COCCO1 [1,4-dioxane] + Cc1ccccc1C
[1], x1 = 1
Settings | speed of sound [m/s] | viscosity [mPa·s]
293.15 K | 1367.2 | 1.306
298.15 K | 1344.7 | 1.195
303.15 K | 1323.1 | 1.096
308.15 K | 1301.2 | 1.014
313.15 K | 1279.7 | 0.945
318.15 K | 1258.6 | 0.884

c1ccccc1 [benzene]
[2]
Settings | speed of sound [m/s] | viscosity [mPa·s]
293.15 K | 1324.4 | 0.647
298.15 K | 1299.5 | 0.6048
303.15 K | 1275.7 | 0.5672
308.15 K | 1252.4 | 0.5322
313.15 K | 1229.3 | 0.498
318.15 K | 1207.8 | 0.4672

c1ccccc1 [benzene] + C1COCCO1
[1], x2 = 0
Settings | speed of sound [m/s] | viscosity [mPa·s]
293.15 K | 1324.4 | 0.647
298.15 K | 1299.5 | 0.6048
303.15 K | 1275.7 | 0.5672
308.15 K | 1252.4 | 0.5322
313.15 K | 1229.3 | 0.498
318.15 K | 1207.8 | 0.4672

Cc1ccccc1 [toluene]
[2]
Settings | speed of sound [m/s] | viscosity [mPa·s]
293.15 K | 1328.6 | 0.5885
298.15 K | 1307.3 | 0.5541
303.15 K | 1285.5 | 0.5232
308.15 K | 1264.2 | 0.495
313.15 K | 1242.4 | 0.4662
318.15 K | 1220.7 | 0.4384

Cc1ccccc1 [toluene] + C1COCCO1
[1], x2 = 0
Settings | speed of sound [m/s] | viscosity [mPa·s]
293.15 K | 1328.6 | 0.5885
298.15 K | 1307.3 | 0.5541
303.15 K | 1285.5 | 0.5232
308.15 K | 1264.2 | 0.495
313.15 K | 1242.4 | 0.4662
318.15 K | 1220.7 | 0.4384
